In patent US8653263B2 (Janssen Pharmaceutica, priority 2009, dated 2014):

biological target: human orexin-2 receptor (Homo sapiens (Human), UniProt O43614); experiment: Human orexin 2 receptor radioligand binding ([3H]-EMPA competition); conditions: HEK293 cells stably expressing human orexin-2 receptor; [3H]-EMPA 5 nM final; apparent Ki=IC50/(1+C/Kd), Kd=2 nM; read-out: OR 2 Ki
Sequence (O43614 whole entry): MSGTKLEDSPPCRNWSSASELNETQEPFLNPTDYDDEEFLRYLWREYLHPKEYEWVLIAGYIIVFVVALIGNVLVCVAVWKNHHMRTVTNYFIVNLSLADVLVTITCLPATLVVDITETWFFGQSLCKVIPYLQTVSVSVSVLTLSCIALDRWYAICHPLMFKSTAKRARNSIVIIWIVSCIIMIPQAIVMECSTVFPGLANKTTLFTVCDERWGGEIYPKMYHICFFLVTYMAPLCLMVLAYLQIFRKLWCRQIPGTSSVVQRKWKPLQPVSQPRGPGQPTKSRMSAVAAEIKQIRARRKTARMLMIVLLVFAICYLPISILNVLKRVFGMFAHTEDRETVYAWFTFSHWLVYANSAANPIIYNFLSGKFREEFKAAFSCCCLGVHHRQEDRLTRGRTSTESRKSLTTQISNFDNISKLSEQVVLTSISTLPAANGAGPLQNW

SMILES	Ki
Cc1ccc(-c2cc(F)ccc2C(=O)N2CC3CN(c4nc(C)cc(C)n4)CC3C2)nc1 (stereo not shown) [Example 248, (5-(4,6-dimethylpyrimidin-2-yl)hexahydropyrrolo[3,4-c]pyrrol-2(1H)-yl)(4-fluoro-2-(5-methylpyridin-2-yl)phenyl)methanone]	170 nM
Cc1cc(N2CC3CN(C(=O)c4nc(C)sc4-c4ccc(F)cc4)CC3C2)nc(C)n1 (stereo not shown) [Example 253, 2-(2,6-Dimethylpyrimidin-4-yl)-5-{[5-(4-fluorophenyl)-2-methyl-1,3-thiazol-4-yl]carbonyl}octahydropyrrolo[3,4-c]pyrrole]	5000 nM
Cc1cc(C)nc(N2CC3CN(C(=O)c4nc(C)sc4-c4ccc(F)cc4)CC3C2)n1 (stereo not shown) [Example 254, 2-(4,6-Dimethylpyrimidin-2-yl)-5-{[5-(4-fluorophenyl)-2-methyl-1,3-thiazol-4-yl]carbonyl}octahydropyrrolo[3,4-c]pyrrole]	2200 nM
Cc1nc(=O)cc(N2CC3CN(C(=O)c4nc(C)sc4-c4ccc(F)cc4)CC3C2)[nH]1 (stereo not shown) [Example 255, 6-[5-{[5-(4-Fluorophenyl)-2-methyl-1,3-thiazol-4-yl]carbonyl}hexahydropyrrolo[3,4-c]pyrrol-2(1H)-yl]-2-methylpyrimidin-4(3H)-one]	10000 nM
O=C(O)c1cnc(N2CC3CN(C(=O)c4c(F)cccc4-n4nccn4)CC3C2)nc1C(F)(F)F (stereo not shown) [Example 263, 2-(5-(2-Fluoro-6-(2H-1,2,3-triazol-2-yl)benzoyl)hexahydropyrrolo[3,4-c]pyrrol-2(1H)-yl)-4-(trifluoromethyl)pyrimidine-5-carboxylic acid]	10000 nM
Cc1cc(C(=O)O)nc(N2CC3CN(C(=O)c4c(F)cccc4-n4nccn4)CC3C2)n1 (stereo not shown) [Example 265, 2-(5-(2-Fluoro-6-(2H-1,2,3-triazol-2-yl)benzoyl)hexahydropyrrolo[3,4-c]pyrrol-2(1H)-yl)-6-methylpyrimidine-4-carboxylic acid]	9000 nM
Cc1cc(C)nc(N2CC3CN(C(=O)c4cccc(C)c4-n4ccnn4)CC3C2)n1 (stereo not shown) [Example 267, (5-(4,6-Dimethylpyrimidin-2-yl)hexahydropyrrolo[3,4-c]pyrrol-2(1H)-yl)(3-methyl-2-(1H-1,2,3-triazol-1-yl)phenyl)methanone]	10000 nM
Cc1cc(C)c(C(=O)N2CC3CN(c4nc(C)cc(C)n4)CC3C2)c(C)c1 (stereo not shown) [Example 270, (5-(4,6-Dimethylpyrimidin-2-yl)hexahydropyrrolo[3,4-c]pyrrol-2(1H)-yl)(mesityl)methanone]	1030 nM
Cc1cc(C)nc(N2CC3CN(C(=O)c4cccc(F)c4F)CC3C2)n1 (stereo not shown) [Example 271, (2,3-Difluorophenyl)(5-(4,6-dimethylpyrimidin-2-yl)hexahydropyrrolo[3,4-c]pyrrol-2(1H)-yl)methanone]	5000 nM
COc1ccc(C(=O)N2CC3CN(c4nc(C)cc(C)n4)CC3C2)c(-c2ncccn2)c1 (stereo not shown) [Example 272, (5-(4,6-Dimethylpyrimidin-2-yl)hexahydropyrrolo[3,4-c]pyrrol-2(1H)-yl)(4-methoxy-2-(pyrimidin-2-yl)phenyl)methanone]	33 nM
COc1cccc(C(=O)N2CC3CN(c4nc(C)cc(C)n4)CC3C2)c1OC (stereo not shown) [Example 273, (2,3-Dimethoxyphenyl)(5-(4,6-dimethylpyrimidin-2-yl)hexahydropyrrolo[3,4-c]pyrrol-2(1H)-yl)methanone]	5000 nM
Cc1cc(C)nc(N2CC3CN(C(=O)c4ccccc4OC(F)(F)F)CC3C2)n1 (stereo not shown) [Example 274, (5-(4,6-Dimethylpyrimidin-2-yl)hexahydropyrrolo[3,4-c]pyrrol-2(1H)-yl)(2-(trifluoromethoxy)phenyl)methanone]	61 nM
COc1cc(C)ccc1C(=O)N1CC2CN(c3nc(C)cc(C)n3)CC2C1 (stereo not shown) [Example 276, (5-(4,6-Dimethylpyrimidin-2-yl)hexahydropyrrolo[3,4-c]pyrrol-2(1H)-yl)(2-methoxy-4-methylphenyl)methanone]	2950 nM
COc1ccc(C(=O)N2CC3CN(c4nc(C)cc(C)n4)CC3C2)c(C)c1 (stereo not shown) [Example 277, (5-(4,6-Dimethylpyrimidin-2-yl)hexahydropyrrolo[3,4-c]pyrrol-2(1H)-yl)(4-methoxy-2-methylphenyl)methanone]	680 nM
Cc1cc(C)nc(N2CC3CN(C(=O)c4c(F)cccc4F)CC3C2)n1 (stereo not shown) [Example 278, (2,6-Difluorophenyl)(5-(4,6-dimethylpyrimidin-2-yl)hexahydropyrrolo[3,4-c]pyrrol-2(1H)-yl)methanone]	2270 nM
Cc1cc(C)nc(N2CC3CN(C(=O)c4cccc(F)c4-c4ncccn4)CC3C2)n1 (stereo not shown) [Example 283, 2-(4,6-Dimethylpyrimidin-2-yl)-5-[(3-fluoro-2-pyrimidin-2-ylphenyl)carbonyl]octahydropyrrolo[3,4-c]pyrrole]	10 nM
Cc1cc(C)nc(N2CC3CN(C(=O)c4cccc(F)c4-c4ccn[nH]4)CC3C2)n1 (stereo not shown) [Example 284, 2-(4,6-Dimethylpyrimidin-2-yl)-5-{[3-fluoro-2-(1H-pyrazol-5-yl)phenyl]carbonyl}octahydropyrrolo[3,4-c]pyrrole]	8 nM

SMILES	Ki
COc1cccc(C(=O)N2CC3CN(c4nc(C)cc(C)n4)CC3C2)c1-n1ccnn1 (stereo not shown) [Example 286, 2-(4,6-Dimethylpyrimidin-2-yl)-5-{[3-methoxy-2-(1H-1,2,3-triazol-1-yl)phenyl]carbonyl}octahydropyrrolo[3,4-c]pyrrole]	10000 nM
Cc1cc(C)nc(N2CC3CN(C(=O)c4cccc(F)c4-n4ccnn4)CC3C2)n1 (stereo not shown) [Example 287, 2-(4,6-Dimethylpyrimidin-2-yl)-5-{[3-fluoro-2-(1H-1,2,3-triazol-1-yl)phenyl]carbonyl}octahydropyrrolo[3,4-c]pyrrole]	1400 nM
COc1ccc(C(=O)N2CC3CN(c4nc(C)cc(C)n4)CC3C2)c(-n2ccnn2)c1 (stereo not shown) [Example 289]	1800 nM
Cc1nc(N2CC3CN(C(=O)c4ccccc4-n4nccn4)CC3C2)ncc1F (stereo not shown) [Example 290, 2-(5-Fluoro-4-methylpyrimidin-2-yl)-5-{[2-(2H-1,2,3-triazol-2-yl)phenyl]carbonyl}octahydropyrrolo[3,4-c]pyrrole]	19 nM
O=C(c1ccccc1-n1nccn1)N1CC2CN(c3nc(Cl)ncc3F)CC2C1 (stereo not shown) [Example 291, 2-(2-Chloro-5-fluoropyrimidin-4-yl)-5-{[2-(2H-1,2,3-triazol-2-yl)phenyl]carbonyl}octahydropyrrolo[3,4-c]pyrrole]	266 nM
Cc1cc(C(C)C)nc(N2CC3CN(C(=O)c4cc(C(C)C)ccc4-n4nccn4)CC3C2)n1 (stereo not shown) [Example 300, 2-{[5-(1-Methylethyl)-2-(2H-1,2,3-triazol-2-yl)phenyl]carbonyl}-5-[4-methyl-6-(1-methylethyl)pyrimidin-2-yl]octahydropyrrolo[3,4-c]pyrrole]	290 nM
Cc1ncnc(N2CC3CN(C(=O)c4c(F)cccc4-n4nccn4)CC3C2)n1 (stereo not shown) [Example 303, 2-{[2-Fluoro-6-(2H-1,2,3-triazol-2-yl)phenyl]carbonyl}-5-(4-methyl-1,3,5-triazin-2-yl)octahydropyrrolo[3,4-c]pyrrole]	1700 nM
Cc1nc(N2CC3CN(C(=O)c4ccccc4-c4nnc[nH]4)CC3C2)nc(C)c1C (stereo not shown) [Example 305, 2-{[2-(4H-1,2,4-Triazol-3-yl)phenyl]carbonyl}-5-(4,5,6-trimethylpyrimidin-2-yl)octahydropyrrolo[3,4-c]pyrrole]	7 nM
Cc1cc(C)nc(N2CC3CN(C(=O)c4ccccc4-c4nc(C)no4)CC3C2)n1 (stereo not shown) [Example 306, 2-(4,6-Dimethylpyrimidin-2-yl)-5-{[2-(3-methyl-1,2,4-oxadiazol-5-yl)phenyl]carbonyl}octahydropyrrolo[3,4-c]pyrrole]	39 nM
Cc1cc(C)nc(N2CC3CN(C(=O)c4ccccc4-c4ncn(C)n4)CC3C2)n1 (stereo not shown) [Example 308, 2-(4,6-Dimethylpyrimidin-2-yl)-5-{[2-(1-methyl-1H-1,2,4-triazol-3-yl)phenyl]carbonyl}octahydropyrrolo[3,4-c]pyrrole]	26 nM
Cc1noc(-c2ccccc2C(=O)N2CC3CN(c4nc(C)c(C)c(C)n4)CC3C2)n1 (stereo not shown) [Example 309, 2-{[2-(3-Methyl-1,2,4-oxadiazol-5-yl)phenyl]carbonyl}-5-(4,5,6-trimethylpyrimidin-2-yl)octahydropyrrolo[3,4-c]pyrrole]	7 nM
Cc1noc(-c2ccccc2C(=O)N2CC3CN(c4ncc(F)c(C)n4)CC3C2)n1 (stereo not shown) [Example 310, 2-(5-Fluoro-4-methylpyrimidin-2-yl)-5-{[2-(3-methyl-1,2,4-oxadiazol-5-yl)phenyl]carbonyl}octahydropyrrolo[3,4-c]pyrrole]	64 nM
Cc1nc(N2CC3CN(C(=O)c4ccccc4-c4ncn(C)n4)CC3C2)nc(C)c1C (stereo not shown) [Example 311, 2-{[2-(1-Methyl-1H-1,2,4-triazol-3-yl)phenyl]carbonyl}-5-(4,5,6-trimethylpyrimidin-2-yl)octahydropyrrolo[3,4-c]pyrrole]	7 nM
Cc1nc(N2CC3CN(C(=O)c4ccccc4-c4ncn(C)n4)CC3C2)ncc1F (stereo not shown) [Example 312, 2-(5-Fluoro-4-methylpyrimidin-2-yl)-5-{[2-(1-methyl-1H-1,2,4-triazol-3-yl)phenyl]carbonyl}octahydropyrrolo[3,4-c]pyrrole]	79 nM
Cc1cc(C)nc(N2CC3CN(C(=O)c4c(F)cccc4-c4nc(C)no4)CC3C2)n1 (stereo not shown) [Example 315, 2-(4,6-Dimethylpyrimidin-2-yl)-5-{[2-fluoro-6-(3-methyl-1,2,4-oxadiazol-5-yl)phenyl]carbonyl}octahydropyrrolo[3,4-c]pyrrole]	38 nM
Cc1noc(-c2ccccc2C(=O)N2CC3CN(c4nc(C)c(Cl)c(C)n4)CC3C2)n1 (stereo not shown) [Example 318, 2-(5-Chloro-4,6-dimethylpyrimidin-2-yl)-5-{[2-(3-methyl-1,2,4-oxadiazol-5-yl)phenyl]carbonyl}octahydropyrrolo[3,4-c]pyrrole]	5 nM

same assay, conditions: read-out: OR 2 Ki

SMILES	Ki
Cc1nc(N2CC3CN(C(=O)c4c(F)cccc4-n4nccn4)CC3C2)cc(=O)[nH]1 (stereo not shown) [Example 252, 6-[5-{[2-Fluoro-6-(2H-1,2,3-triazol-2-yl)phenyl]carbonyl}hexahydropyrrolo[3,4-c]pyrrol-2(1H)-yl]-2-methylpyrimidin-4(3H)-one]	≥ 10000 nM
